Assay results published in the supplement of paper PMC9663587.

Assays:
Assay in all cases: area over the GR curve, 72 h; higher = more effect;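 also: Dye Drop or Deep Dye Drop imaging of viable cells in 384-well plates (Hoechst nuclei, LIVE/DEAD dye), nine half-log doses, GR normalized to DMSO controls and time-zero plates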
EVSAT = tested on: EVSAT
CAL120 = tested on: CAL120
PDXHCI002 = tested on: PDXHCI002
SUM52PE = tested on: SUM52PE
HCC202 = tested on: HCC202
MCF7 = tested on: MCF7
MDAMB361 = tested on: MDAMB361
HCC38 = tested on: HCC38
BT474 = tested on: BT474
PDX1258 = tested on: PDX1258
T47D = tested on: T47D
HS578T = tested on: HS578T

Row | Compound | area over the GR curve (EVSAT) [GR] | area over the GR curve (CAL120) [GR] | area over the GR curve (PDXHCI002) [GR] | area over the GR curve (SUM52PE) [GR] | area over the GR curve (HCC202) [GR] | area over the GR curve (MCF7) [GR] | area over the GR curve (MDAMB361) [GR] | area over the GR curve (HCC38) [GR] | area over the GR curve (BT474) [GR] | area over the GR curve (PDX1258) [GR] | area over the GR curve (T47D) [GR] | area over the GR curve (HS578T) [GR] | area over the GR curve (CAL120; main component drawn) [GR] | area over the GR curve (PDXHCI002; main component drawn) [GR] | area over the GR curve (MCF7; main component drawn) [GR] | area over the GR curve (MDAMB361; main component drawn) [GR] | area over the GR curve (HCC38; main component drawn) [GR] | area over the GR curve (PDX1258; main component drawn) [GR] | area over the GR curve (T47D; main component drawn) [GR] | area over the GR curve (HS578T; main component drawn) [GR]
1 | CNc1nc(-c2ccc3c(N)n[nH]c3c2)cc(N2C[C@@H](C(=O)NC3CCCCC3)CC[C@H]2C)n1 (max 10 µM) | 0.257 | 0.0896 | -0.0573 | 0.124 | 0.365 | 0.256 | 0.636 | 0.0564 | 0.332 | 0.011 | 0.394 | 0.157 | – | – | – | – | – | – | – | –
2 | CCOc1cc2ncc(C#N)c(Nc3ccc(OCc4ccccn4)c(Cl)c3)c2cc1NC(=O)/C=C/CN(C)C [Neratinib/HKI272] (max 3.162 µM) | 0.0683 | 0.224 | 0.367 | 0.0354 | 0.453 | 0.142 | 0.425 | 0.102 | 1.43 | 0.154 | 0.274 | 0.202 | – | – | – | – | – | – | – | –
3 | Cc1cc(C(C)Nc2ccccc2)c2nc(N3CCOCC3)cc(=O)n2c1 (stereo not drawn) [TGX221] (max 10 µM) | 0.254 | -0.0168 | -0.0291 | 0.0531 | -0.0253 | -0.0083 | -0.0911 | -0.0299 | -0.0718 | -0.0475 | -0.0193 | 0.0668 | – | – | – | – | – | – | – | –
4 | CN(C)C/C=C/C(=O)Nc1ccc(C(=O)Nc2cccc(Nc3cc(-c4c[nH]c5ccccc45)ncn3)c2)cc1 [THZ-P1-2] (max 10 µM) | 0.127 | 0.124 | 0.153 | 0.129 | 0.0733 | 0.292 | 0.789 | 0.181 | -0.079 | 0.572 | 0.353 | -0.017 | – | – | – | – | – | – | – | –
5 | Cc1c(N)nc([C@H](CC(N)=O)NC[C@H](N)C(N)=O)nc1C(=O)N[C@H](C(=O)N[C@H](C)[C@@H](O)[C@H](C)C(=O)N[C@H](C(=O)NCCc1nc(-c2nc(C(=O)NCCC[S+](C)C)cs2)cs1)[C@@H](C)O)[C@@H](OC1OC(CO)C(O)C(O)C1OC1OC(CO)C(O)C(OC(N)=O)C1O)c1cnc[nH]1 (stereo partly drawn) [Bleomycin] (max 10 µM) | – | – | – | – | – | – | – | – | – | – | – | – | 0.232 | 0.272 | 0.555 | 0.361 | 0.485 | 0.295 | 0.462 | 0.446
6 | NC1(C(=O)N[C@@H](CCO)c2ccc(Cl)cc2)CCN(c2nc[nH]c3nccc2-3)CC1 [AZD5363] (max 10 µM) | 0.728 | 0.0399 | -0.085 | 0.196 | 0.236 | 0.212 | 0.367 | 0.0939 | 0.568 | 0.153 | 0.623 | 0.248 | – | – | – | – | – | – | – | –
7 | COc1cc2nccc(Oc3ccc(NC(=O)C4(C(=O)Nc5ccc(F)cc5)CC4)cc3)c2cc1OC [Cabozantinib] (max 10 µM) | 0.0366 | 0.0847 | 0.0362 | 0.249 | -0.0223 | 0.107 | 0.0628 | 0.0283 | -0.109 | 0.0204 | 0.0578 | 0.134 | – | – | – | – | – | – | – | –
8 | CN1CCN(CCOc2cc(OC3CCOCC3)c3c(Nc4c(Cl)ccc5c4OCO5)ncnc3c2)CC1 [Saracatinib/AZD0530] (max 10 µM) | 0.203 | 0.173 | 0.512 | 0.0817 | 0.396 | 0.322 | 0.406 | 0.101 | 0.303 | 0.275 | 0.171 | 0.159 | – | – | – | – | – | – | – | –
9 | CN(C)C/C=C/C(=O)Nc1ccc(C(=O)N2CCC[C@@H](Nc3ncc(Cl)c(-c4c[nH]c5ccccc45)n3)C2)cc1 [THZ531] (max 1 µM) | 0.0912 | 0.21 | 0.352 | 0.222 | 0.3 | 0.344 | 0.682 | 0.223 | 0.572 | 0.457 | 0.229 | 0.377 | – | – | – | – | – | – | – | –
10 | O=C(CCCCCCC(=O)Nc1ccccc1)NO [Vorinostat] (max 10 µM) | 0.19 | 0.241 | 0.545 | 0.0969 | 0.202 | 0.349 | 0.457 | 0.284 | 0.136 | 0.211 | 0.146 | 0.269 | – | – | – | – | – | – | – | –
11 | CO[C@H]1C[C@@H]2CC[C@@H](C)[C@@](O)(O2)C(=O)C(=O)N2CCCC[C@H]2C(=O)O[C@H]([C@H](C)C[C@@H]2CC[C@@H](OCCO)[C@H](OC)C2)CC(=O)[C@H](C)/C=C(\C)[C@@H](O)[C@@H](OC)C(=O)[C@H](C)C[C@H](C)/C=C/C=C/C=C/1C [Everolimus] (max 10 µM) | 0.551 | 0.416 | -0.0896 | 0.408 | 0.499 | 0.564 | 0.85 | 0.486 | 0.898 | 0.307 | 0.616 | 0.527 | – | – | – | – | – | – | – | –
12 | CN(C)C(=O)c1cc2cnc(Nc3ccc(N4CCNCC4)cn3)nc2n1C1CCCC1 [LEE011/Ribociclib] (max 10 µM) | 0.12 | 0.265 | 0.123 | 0.215 | 0.11 | 0.442 | 0.784 | 0.417 | 0.412 | -0.124 | 0.668 | 0.351 | – | – | – | – | – | – | – | –
13 | CCNC(=O)c1noc(-c2cc(C(C)C)c(O)cc2O)c1-c1ccc(CN2CCOCC2)cc1 [Luminespib/NVP-AUY922] (max 1 µM) | 0.68 | 0.693 | 0.7 | 0.6 | 0.431 | 0.513 | 0.978 | 0.624 | 0.781 | 0.608 | 0.51 | 0.67 | – | – | – | – | – | – | – | –
14 | COc1ccc2c(c1)[C@]1(C[C@H]1c1ccc3c(/C=C/c4ccc(CN5C[C@@H](C)O[C@@H](C)C5)cc4)n[nH]c3c1)C(=O)N2 | 0.531 | 0.518 | 0.489 | 0.516 | 0.299 | 0.906 | 0.425 | 0.852 | 0.475 | 0.676 | 0.79 | 0.941 | – | – | – | – | – | – | – | –
15 | CCc1cncnc1N1CCN(Cc2nc3ccc(C(F)(F)F)cc3[nH]2)CC1 (max 10 µM) | 0.0249 | 0.0139 | -0.045 | 0.0787 | 0.0342 | 0.0548 | 0.0684 | -0.0304 | -0.104 | -0.0033 | 0.122 | 0.0252 | – | – | – | – | – | – | – | –
16 | CC(C)Nc1cc(-c2c[nH]c(C(=O)N[C@H](CO)c3cccc(Cl)c3)c2)c(Cl)cn1 [BVD523] (max 10 µM) | 0.0496 | 0.108 | 0.168 | 0.129 | 0.174 | 0.192 | 0.193 | 0.237 | -0.0171 | 0.149 | 0.185 | 0.316 | – | – | – | – | – | – | – | –
